{
  "source": "patent US11634486B2",
  "about": "“Anti-SEZ6L2 antibodies and antibody drug conjugates” (Bluefin BioMedicine, Inc., priority 2016, dated 2023)",
  "system": "small cell lung cancer cell line NCI-H209",
  "test": "ADC combined with PARP inhibitor, cell viability",
  "assay_type": "cell-based, human",
  "conditions": "olaparib 10 nM to 10 uM, six days",
  "protocol": "Briefly, the small cell lung cancer cell line NCI-H209, which expresses ˜10,000 copies of SEZ6L2 on the cell surface, was seeded onto 96 well plate at 5000 cells/well Immediately after seeding, 10 pM of 3E2-PBD or isotype control hIgG-PBD (bearing a drug antibody ratio (DAR) of 1.7 and 2.5 respectively) were added to the wells in complete culture medium. A PARP inhibitor (olaparib) was then added to these wells such that the final concentration ranged from 10 nM to 10 uM. The PARP inhibitor was also tested on cells without an ADC. Each treatment was replicated in 2 wells and after six days, the PARP inhibitor plus modulator-mediated PBD cytotoxicity was assessed by quantifying the remaining number of live cells using Cell Titer Glo™. Cell viability was graphed by Prism™ using ratio of cell viability of test conditions to that of control wells treated with growth medium only.",
  "data": [
    {"molecule": "O=C(c1cc(Cc2n[nH]c(=O)c3ccccc23)ccc1F)N1CCN(C(=O)C2CC2)CC1", "note": "[olaparib, reference compound]", "values": [
      {"measurement": "percent viable cells, PARP inhibitor alone", "value": "responded in a dose dependent manner"}
    ]}
  ]
}
